What was measured:
[1] = molecular target: HMGR enzyme; assay: HMGR Screen (solubilized rat liver microsomal HMG-CoA reductase, [14C] HMG-CoA); assay type: biochemical; conditions: 20 μM HMG-CoA, pH 7.0, 37° C.
Description: (§1) The utility of the claimed compounds is measured by the test methods described hereunder. […] 1976, Biochemistry.
The first method used (designated HMGR Screen) was as follows: Male rats were acclimated to an alternate 12 hour light-dark cycle for a period of 2-3 weeks. The animals, weighing 180-230g, were fed ad libitum a rat chow containing 2% cholestyramine for 5 days prior to sacrifice at the mid-dark period. Liver microsomes were prepared and HMGR enzyme was solubilized from the microsomes by freeze-thaw manipulation in high ionic strength buffer. The enzyme preparation was stored at -80° C. in 300 μl portion samples. Prior to use, the enzyme was activated at 37° C. for 30 minutes in a reaction mixture. The reaction mixture was contained in a volume of 240 μl1:0.14M potassium phosphate buffer (pH 7.0); 0.18M KCl; 3.5 mM EDTA; 10 mM dithiothreitol; 0.1 mg/ml BSA; 30,000 cpm of [^14 C] HMG-CoA; 20 μM HMG-CoA; and 200 μg of solubilized enzyme with and without inhibitors (in 10 μl DMSO). After 5 minutes incubation at 37° C. the reaction was initiated with 0.2 mM NADPH. The final assay volume was 300 μl. After 10 minutes the reaction mixture was terminated with 100 μl of 1N HCl. […] After the addition of 10 ml of Aquasol , radioactivities of the samples were measured in a scintillation counter.

[2] = test system: cholesterol synthesis; assay: Ex-Vivo Non-Fasted (cholesterol synthesis from [14C] sodium acetate in liver slices of orally dosed fed rats); set-up: species or system rat; conditions: oral in 0.5% methocel, livers removed two hours after dosing, dose not given
Description: as §1
The second method used (designated Ex-Vivo Non-Fasted and Ex-Vivo Fasted) used was as follows: Rats of 170-210g were maintained on a low cholesterol diet for one week prior to use. Drugs were given orally in 0.5% methocel to both fed and fasted (fasted for 16 hours) rats. After one hour (fasted rats) and two hours (fed rats) the rats were decapitated and their livers removed and transferred to chilled oxygenated Kreb's-Ringer-bicarbonate buffer (pH 7.4). The livers were then chopped into 0.5 mm slices using a McIlwain tissue chopper, and were suspended in the same buffer. Aliquots of the suspension containing 100 mg tissue were pipetted to culture tubes which contained [^14 C] sodium acetate (2 μCi, 1 mM). The tubes were gassed with 95% O2 /5%CO2, capped and incubated at 37° C. in a shaking water bath at 150 oscillation/minute for two hours. The final assay volume was 1.0 ml. After incubation the reaction was stopped by the addition of 1.0 ml of 15% KOH in ethanol, and the internal standard ^3 H-cholesterol was added. The tubes were recapped and the samples were saponified at 75° C. for two hours with periodic mixing. […] After visualization with iodine the cholesterol spots were cut and counted with liquid scintillation fluid. […]

IC50 [1]: 9.8 nM
Compound: CC1(C)Sc2ccccc2C(c2ccc(F)cc2)=C1/C=C/[C@@H]1C[C@@H](O)CC(=O)O1 (relative stereo) [Example 1G]
inhibited cholesterol synthesis [2]: 43%

From US4946860A, “Benzothiopyranyl derivatives as HMG-CoA reductase inhibitors” (Rorer Pharmaceutical Corporation, priority 1989, dated 1990)
